Test results: patent US6737383B1, “Herbicidal oxadiazolidines” (priority 1999, dated 2004)

Assays:
cocklebur = test: Test B pre/postemergence cocklebur; assay type: in vivo, Xanthium strumarium
Method in brief: (§1)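 Test chemicals in a non-phytotoxic solvent mixture with surfactant were sprayed preemergence onto planted seeds and postemergence onto plants 2 to 18 cm tall (1- to 4-leaf stage). After twelve to sixteen days in a greenhouse, injury was visually rated against untreated controls from 0 (no effect) to 10 (complete control).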

wild oat = test: Test B pre/postemergence wild oat; assay type: in vivo, Avena fatua
Method in brief: as §1

blackgrass = test: Test B pre/postemergence blackgrass; assay type: in vivo, Alopecurus myosuroides
Method in brief: as §1

crabgrass = test: Test B pre/postemergence crabgrass; assay type: in vivo, Digitaria sanguinalis
Method in brief: as §1

sugar beet = test: Test B pre/postemergence sugar beet; assay type: in vivo, Beta vulgaris
Method in brief: as §1

corn = test: Test B pre/postemergence corn; assay type: in vivo, Zea mays
Method in brief: as §1

duck salad = test: Test B flood test duck salad; assay type: in vivo, Heteranthera limosa
Method in brief: (§2)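 Each value is a visual injury score relative to controls, with 10 meaning complete control and 0 no effect. Evaluation took place twelve to sixteen days after the 2-leaf-stage plants were treated and kept in the greenhouse.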

bedstraw = test: Test B pre/postemergence bedstraw; assay type: in vivo, Galium aparine; conditions: Postemergence; for Bedstraw plant response rating: scale of 0 to 10, 0 is no effect, 10 is complete control
Method in brief: as §1

giant foxtail = test: Test B pre/postemergence giant foxtail; assay type: in vivo, Setaria faberii
Method in brief: as §1

smallflower flatsedge = test: Test B flood test smallflower flatsedge; assay type: in vivo, Cyperus difformis
Method in brief: as §2

surinam grass = test: Test B pre/postemergence surinam grass; assay type: in vivo, Brachiaria decumbens
Method in brief: as §1

rape = test: Test B pre/postemergence rape; assay type: in vivo, Brassica napus
Method in brief: as §1

velvetleaf = test: Test B pre/postemergence velvetleaf; assay type: in vivo, Abutilon theophrasti
Method in brief: as §1

wheat = test: Test B pre/postemergence wheat; assay type: in vivo, Triticum aestivum
Method in brief: as §1

purple nutsedge = test: Test B pre/postemergence purple nutsedge; assay type: in vivo, Cyperus rotundus
Method in brief: as §1

pigweed = test: Test B pre/postemergence pigweed; assay type: in vivo, Amaranthus retroflexus
Method in brief: as §1

rice = test: Test B flood test rice; assay type: in vivo, Oryza sativa
Method in brief: as §2

morningglory = test: Test B pre/postemergence morningglory; assay type: in vivo, Ipomoea hederacea
Method in brief: as §1

bamyardgrass = test: Test B flood test barnyardgrass; assay type: in vivo, Echinochloa crus-galli
Method in brief: as §2

soybean = test: Test B pre/postemergence soybean; assay type: in vivo, Glycine max
Method in brief: as §1

[1] = Postemergence, Rate 62 g/ha, scale of 0 to 10, 0 is no effect, 10 is complete control
[2] = Postemergence, Rate 125 g/ha, scale of 0 to 10 where 0 is no effect and 10 is complete control
[3] = Postemergence, Rate 250 g/ha, scale of 0 to 10, 0 is no effect, 10 is complete control
[4] = Postemergence, Rate 500 g/ha, scale of 0 to 10 where 0 is no effect and 10 is complete control
[5] = Preemergence, Rate 62 g/ha, scale 0 to 10 (0 no effect, 10 complete control)
[6] = Preemergence, Rate 125 g/ha, scale of 0 to 10 where 0 is no effect and 10 is complete control
[7] = Preemergence, Rate 500 g/ha, scale of 0 to 10 where 0 is no effect and 10 is complete control
[8] = Rate 62 g/ha, flood test species, Pre-emergence, visual evaluation after twelve to sixteen days
[9] = Rate 125 g/ha, under heading Pre-emergence, flood test species, visual evaluation after twelve to sixteen days
[10] = Rate 250 g/ha, Pre-emergence (flood test species), scale 0 to 10, 0 is no effect, 10 is complete control
[11] = Rate 500 g/ha, Pre-emergence section of Table B, 0 to 10 scale (0 no effect, 10 complete control)

With CC(C)N(C(=O)n1oc(=O)n(CC(=O)N(C)C)c1=O)c1ccc(F)cc1 [Compound 586] the “Cocklebur plant response rating” value (cocklebur; [1]) was 0, the “Plant response rating, Cocklebur” value (cocklebur; [2]) was 0 and the “Cocklebur plant response rating” value (cocklebur; [3]) was 0. For the same compound, the “Plant response rating, Cocklebur” value (cocklebur; [4]) was 0, the “Cocklebur plant response rating” value (cocklebur; [5]) was 0 and the “Cocklebur plant response rating” value (cocklebur; [6]) was 0. For the same compound, the “Cocklebur plant response rating (0 to 10 scale)” value (cocklebur; Preemergence, Rate 250 g/ha) was 0, the “Cocklebur plant response rating” value (cocklebur; [7]) was 0 and the “Plant response rating, Wild oats” value (wild oat; [2]) was 0. The “Wild oats plant response rating” value (wild oat; [3]) was 0, the “Plant response rating, Wild oats” value (wild oat; [4]) was 0 and the “Wild oats plant response rating” value (wild oat; [5]) was 0. The “Wild oats plant response rating” value (wild oat; [6]) was 3, the “Wild oats plant response rating” value (wild oat; [7]) was 10 and the “Blackgrass plant response rating” value (blackgrass; [1]) was 0. For the same compound, the “Plant response rating, Blackgrass” value (blackgrass; [2]) was 1, the “Blackgrass plant response rating” value (blackgrass; [3]) was 3 and the “Plant response rating, Blackgrass” value (blackgrass; [4]) was 8. The “Blackgrass plant response rating” value (blackgrass; [5]) was 3, the “Blackgrass plant response rating” value (blackgrass; [6]) was 7 and the “Blackgrass plant response rating (0 to 10 scale)” value (blackgrass; Preemergence, Rate 250 g/ha) was 9. For the same compound, the “Blackgrass plant response rating” value (blackgrass; [7]) was 10, the “Crabgrass plant response rating” value (crabgrass; [1]) was 2 and the “Plant response rating, Crabgrass” value (crabgrass; [2]) was 3. For the same compound, the “Crabgrass plant response rating” value (crabgrass; [3]) was 8, the “Plant response rating, Crabgrass” value (crabgrass; [4]) was 9 and the “Crabgrass plant response rating” value (crabgrass; [5]) was 9. The “Crabgrass plant response rating” value (crabgrass; [6]) was 9, the “Crabgrass plant response rating” value (crabgrass; [7]) was 10 and the “Plant response rating, Sugarbeets” value (sugar beet; [2]) was 0. For the same compound, the “Sugarbeets plant response rating” value (sugar beet; [3]) was 0, the “Plant response rating, Sugarbeets” value (sugar beet; [4]) was 0 and the “Sugarbeets plant response rating” value (sugar beet; [5]) was 0. For the same compound, the “Sugarbeets plant response rating” value (sugar beet; [6]) was 0, the “Sugarbeets plant response rating” value (sugar beet; [7]) was 8 and the “Corn plant response rating” value (corn; [1]) was 0. The “Plant response rating, Corn” value (corn; [2]) was 0, the “Corn plant response rating” value (corn; [3]) was 2 and the “Plant response rating, Corn” value (corn; [4]) was 3. The “Corn plant response rating” value (corn; [5]) was 0, the “Corn plant response rating” value (corn; [6]) was 0 and the “Corn plant response rating (0 to 10 scale)” value (corn; Preemergence, Rate 250 g/ha) was 0. The “Corn plant response rating” value (corn; [7]) was 0, the “Plant response rating, Ducksalad (0 to 10 scale, 0 is no effect, 10 is complete control)” value (duck salad; [8]) was 0 and the “Ducksalad plant response rating (0 to 10 scale, 0 is no effect, 10 is complete control)” value (duck salad; [9]) was 0. The “Ducksalad plant response rating” value (duck salad; [10]) was 0, the “Ducksalad plant response rating” value (duck salad; [11]) was 0 and the “Bedstraw plant response rating” value (bedstraw; Rate 62 g/ha) was 0. The “Plant response rating, Bedstraw” value (bedstraw; Rate 125 g/ha, scale of 0 to 10 where 0 is no effect and 10 is complete control) was 0, the “Bedstraw plant response rating” value (bedstraw; Rate 250 g/ha) was 0 and the “Giant foxtail plant response rating” value (giant foxtail; [1]) was 2. The “Plant response rating, Giant foxtail” value (giant foxtail; [2]) was 2, the “Giant foxtail plant response rating” value (giant foxtail; [3]) was 8 and the “Plant response rating, Giant foxtail” value (giant foxtail; [4]) was 9. The “Giant foxtail plant response rating” value (giant foxtail; [5]) was 9, the “Giant foxtail plant response rating” value (giant foxtail; [6]) was 10 and the “Giant foxtail plant response rating” value (giant foxtail; [7]) was 10. For the same compound, the “Plant response rating, S. Flatsedge (0 to 10 scale, 0 is no effect, 10 is complete control)” value (smallflower flatsedge; [8]) was 0, the “S. Flatsedge plant response rating (0 to 10 scale, 0 is no effect, 10 is complete control)” value (smallflower flatsedge; [9]) was 0 and the “S. Flatsedge plant response rating” value (smallflower flatsedge; [10]) was 0. The “S. Flatsedge plant response rating” value (smallflower flatsedge; [11]) was 0, the “B. signalgrass plant response rating” value (surinam grass; [1]) was 0 and the “Plant response rating, B. signalgrass” value (surinam grass; [2]) was 0. For the same compound, the “B. signalgrass plant response rating” value (surinam grass; [3]) was 3, the “Plant response rating, B. signalgrass” value (surinam grass; [4]) was 7 and the “B. signalgrass plant response rating” value (surinam grass; [5]) was 0. The “B. signalgrass plant response rating” value (surinam grass; [6]) was 5, the “B. signalgrass plant response rating (0 to 10 scale, 0 is no effect, 10 is complete control)” value (surinam grass; Preemergence, Rate 250 g/ha) was 8 and the “B. signalgrass plant response rating” value (surinam grass; [7]) was 10. For the same compound, the “Rape plant response rating” value (rape; [1]) was 0, the “Plant response rating, Rape” value (rape; [2]) was 0 and the “Rape plant response rating” value (rape; [3]) was 0. The “Plant response rating, Rape” value (rape; [4]) was 0, the “Rape plant response rating” value (rape; [5]) was 0 and the “Rape plant response rating” value (rape; [6]) was 0. The “Rape plant response rating” value (rape; [7]) was 4, the “Plant response rating, Velvetleaf” value (velvetleaf; [2]) was 0 and the “Velvetleaf plant response rating” value (velvetleaf; [3]) was 0. The “Plant response rating, Velvetleaf” value (velvetleaf; [4]) was 1, the “Velvetleaf plant response rating” value (velvetleaf; [5]) was 0 and the “Velvetleaf plant response rating” value (velvetleaf; [6]) was 0. The “Velvetleaf plant response rating” value (velvetleaf; [7]) was 7, the “Plant response rating, Wheat” value (wheat; [2]) was 0 and the “Wheat plant response rating” value (wheat; [3]) was 0. The “Plant response rating, Wheat” value (wheat; [4]) was 0, the “Wheat plant response rating” value (wheat; [5]) was 0 and the “Wheat plant response rating” value (wheat; [6]) was 0. For the same compound, the “Wheat plant response rating” value (wheat; [7]) was 8, the “Nutsedge plant response rating” value (purple nutsedge; [1]) was 0 and the “Plant response rating, Nutsedge” value (purple nutsedge; [2]) was 0. For the same compound, the “Nutsedge plant response rating” value (purple nutsedge; [3]) was 0, the “Plant response rating, Nutsedge” value (purple nutsedge; [4]) was 0 and the “Nutsedge plant response rating” value (purple nutsedge; [5]) was 0. For the same compound, the “Nutsedge plant response rating” value (purple nutsedge; [6]) was 0, the “Nutsedge plant response rating” value (purple nutsedge; [7]) was 2 and the “Plant response rating, Redroot pigweed” value (pigweed; [2]) was 0. The “Redroot pigweed plant response rating” value (pigweed; [3]) was 0, the “Plant response rating, Redroot pigweed” value (pigweed; [4]) was 2 and the “Redroot pigweed plant response rating” value (pigweed; [5]) was 0. The “Redroot pigweed plant response rating” value (pigweed; [6]) was 8, the “Redroot pigweed plant response rating” value (pigweed; [7]) was 10 and the “Plant response rating, Rice (0 to 10 scale, 0 is no effect, 10 is complete control)” value (rice; [8]) was 0. For the same compound, the “Rice plant response rating (0 to 10 scale, 0 is no effect, 10 is complete control)” value (rice; [9]) was 0, the “Rice plant response rating” value (rice; [10]) was 0 and the “Rice plant response rating” value (rice; [11]) was 0. The “Morningglory plant response rating” value (morningglory; [1]) was 6, the “Plant response rating, Morningglory” value (morningglory; [2]) was 10 and the “Morningglory plant response rating” value (morningglory; [3]) was 10. The “Morningglory plant response rating” value (morningglory; [5]) was 0, the “Morningglory plant response rating” value (morningglory; [6]) was 0 and the “Morningglory plant response rating” value (morningglory; [7]) was 4. For the same compound, the “Plant response rating, Barnyardgrass (0 to 10 scale, 0 is no effect, 10 is complete control)” value (bamyardgrass; [8]) was 0, the “Barnyardgrass plant response rating (0 to 10 scale, 0 is no effect, 10 is complete control)” value (bamyardgrass; [9]) was 0 and the “Barnyardgrass plant response rating” value (bamyardgrass; [10]) was 0. The “Barnyardgrass plant response rating” value (bamyardgrass; [11]) was 0, the “Plant response rating, Soybean” value (soybean; [2]) was 3 and the “Soybean plant response rating” value (soybean; [3]) was 3. The “Plant response rating, Soybean” value (soybean; [4]) was 3, the “Soybean plant response rating” value (soybean; [5]) was 0 and the “Soybean plant response rating” value (soybean; [6]) was 0. For the same compound, the “Soybean plant response rating” value (soybean; [7]) was 0.
